These results are taken from patent US12448388B2, “PRMT5 inhibitors and uses thereof” (Gilead Sciences, Inc., priority 2023, dated 2025).

This test relates to HCT116 MTAP-deleted cell lines. The experiment in a line: Cell viability assay (CellTiter-Glo, 7 days), HCT116 MTAP-deleted. In kind it is cell-based. As to conditions: Homo sapiens, HCT-116, HCT116 MTAP-deleted, class symbols, read-out: CC50. In a few lines:
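PRMT5 inhibitors were serially diluted in DMSO and acoustically spotted as dose-response series into plates before cell seeding. Cells were grown with compound for 7 days at 37 °C, 5% CO2, 90% humidity, then viability was read by CellTiter-Glo luminescence and reported as CC50.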
In general terms: Cellular ATP, detected with luciferase, serves as a proxy for viable cell number.

Where two headings read alike, the source gives them in different places.

Consider `CN(C(=O)c1cc2c(cc1F)nc(N)c1cncn12)[C@@H]1CCc2nc(C(F)(F)F)ccc21` [Ff-318, (R)-4-amino-7-fluoro-N-methyl-N-(2-(trifluoromethyl)-6,7-dihydro-5H-cyclopenta[b]pyridin-5-yl)imidazo[1,5-a]quinoxaline-8-carboxamide], for which, for the setting “cell viability”, the CC50 is under 100 nM. `Cc1ncc2c(N)nc3ccc(C(=O)N4C[C@@H](C)O[C@@H]5Cc6cc(OC(F)(F)F)ccc6[C@@H]54)cc3n12` (single isomer, unassigned) [Ff-189]: where the note is “cell viability”, the CC50 fell in the range of 100 to 1000 nM. Consider `Nc1nc2cc(F)c(C(=O)N3CCC[C@@H]4Oc5nc(C(F)(F)F)ccc5[C@@H]43)cc2n2cncc12` [Ff-361, (4-amino-7-fluoroimidazo[1,5-a]quinoxalin-8-yl)((4aS,9bS)-7-(trifluoromethyl)-3,4,4a,9b-tetrahydrofuro[2,3-b:4,5-b′]dipyridin-1(2H)-yl)methanone], for which, for the setting “cell viability”, the CC50 was under 100 nM. With `Cc1ncn2c1c(N)nc1cnc(C(=O)N(C)C3CCc4cc(C(F)(F)F)ccc43)cc12` (stereo not drawn) [Ff-435, 7-amino-N,5-dimethyl-N-[5-(trifluoromethyl)indan-1-yl]-2,4,8,11-tetrazatricyclo[7.4.0.02,6]trideca-1(13),3,5,7,9,11-hexaene-12-carboxamide], for the setting “cell viability assay”, the CC50 was in the range of 100 to 1000 nM. For `Nc1nc2cc(F)c(C(=O)N3CC[C@H]4C[C@@H]3c3cc(F)c(C(F)(F)F)cc3O4)cc2n2cncc12` [Ff-636, (4-amino-7-fluoroimidazo[1,5-a]quinoxalin-8-yl)((2S,6R)-8-fluoro-9-(trifluoromethyl)-3,4-dihydro-2H-2,6-methanobenzo[b][1,5]oxazocin-5(6H)-yl)methanone], the CC50 (cell viability assay) is under 100 nM. With `C[C@H]1CN(C(=O)c2cc3c(cc2F)nc(N)c2cncn23)[C@H]2c3ccc(-c4cnn(C(F)(F)F)c4)cc3C[C@H]2O1` [Ff-97, (4-amino-7-fluoroimidazo[1,5-a]quinoxalin-8-yl)((2S,4aS,9aR)-2-methyl-7-(1-(trifluoromethyl)-1H-pyrazol-4-yl)-2,3,9,9a-tetrahydroindeno[2,1-b][1,4]oxazin-4(4aH)-yl)methanone], the CC50 (cell viability) lay within 100 to 1000 nM. As for `CN(C(=O)c1cc2c(cn1)nc(N)c1cncn12)[C@@H](c1ccc(OC(F)(F)F)cc1F)C(F)F` [Fb-12, (S)-4-amino-N-(2,2-difluoro-1-(2-fluoro-4-(trifluoromethoxy)phenyl)ethyl)-N-methylimidazo[1,5-a]pyrido[3,4-e]pyrazine-8-carboxamide], for the setting “cell viability”, the CC50 was in the range of 100 to 1000 nM. In the case of `Nc1nc2cc(F)c(C(=O)N(Cc3ccc(-c4cnn(C(F)(F)F)c4)cn3)C34CC(C3)C4)cc2n2cncc12` [Ff-211, 4-amino-N-(bicyclo[1.1.1]pentan-1-yl)-7-fluoro-N-((5-(1-(trifluoromethyl)-1H-pyrazol-4-yl)pyridin-2-yl)methyl)imidazo[1,5-a]quinoxaline-8-carboxamide], the CC50 (cell viability) was under 100 nM.

With `CN(C(=O)c1cc2c(cc1F)nc(N)c1cncn12)[C@@H]1COCc2cc(-c3cnn(C(F)F)c3)ccc21` [Ff-292, (S)-4-amino-7-fluoro-N-methyl-N-(7-(1-(difluoromethyl)-1H-pyrazol-4-yl)isochroman-4-yl)imidazo[1,5-a]quinoxaline-8-carboxamide], the CC50 (cell viability) is under 100 nM. The same measure, in the same setting: in the case of `Nc1nc2cc(F)c(C(=O)N3CCC[C@@H]4OCc5cc(-c6cnn(C(F)F)c6)ccc5[C@@H]43)cc2n2cncc12` (racemic) [Ff-296, Rac-(4-amino-7-fluoroimidazo[1,5-a]quinoxalin-8-yl)((4aS,10bS)-8-(1-(difluoromethyl)-1H-pyrazol-4-yl)-2,3,4,4a,6,10b-hexahydro-1H-isochromeno[4,3-b]pyridin-1-yl)methanone] it was under 100 nM; in that of `CN(C(=O)c1cc2c(cc1F)nc(N)c1cncn12)[C@@H]1COc2cc(-c3cnn(C(F)(F)F)c3)ccc21` [Ff-95, (S)-4-amino-7-fluoro-N-methyl-N-(6-(1-(trifluoromethyl)-1H-pyrazol-4-yl)-2,3-dihydrobenzofuran-3-yl)imidazo[1,5-a]quinoxaline-8-carboxamide], under 100 nM. In the case of `CN(C(=O)c1cc2c(cn1)nc(N)c1cncn12)[C@H]1c2ccc(C(F)(F)F)cc2[C@H]2C[C@H]21` [Ff-256, 4-amino-N-methyl-N-((1aS,6R,6aR)-3-(trifluoromethyl)-1,1a,6,6a-tetrahydrocyclopropa[a]inden-6-yl)imidazo[1,5-a]pyrido[3,4-e]pyrazine-8-carboxamide], for the setting “cell viability”, the CC50 is 100 to 1000 nM.

Regarding `Nc1nc2cc(F)c(C(=O)N3CCO[C@@H]4Cc5cc(F)ccc5[C@@H]43)cc2n2cncc12` (single isomer, unassigned) [Ff-467], the CC50 (cell viability assay) is under 100 nM. Turning to `Nc1nc2cc(F)c(C(=O)N3CCOC[C@@H]3c3ccc(C(F)(F)F)cc3)cc2n2cncc12` [Ff-38, (S)-(4-amino-7-fluoroimidazo[1,5-a]quinoxalin-8-yl)(3-(4-(trifluoromethyl)phenyl)morpholino)methanone], the CC50 (cell viability) is under 100 nM. In the case of `Cc1ncc2c(N)nc3cnc(C(=O)N4CCC5(CC5)[C@@H]5Oc6cc(C(F)(F)F)ccc6[C@@H]54)cc3n12` [Ff-679, (4-amino-1-methylimidazo[1,5-a]pyrido[3,4-e]pyrazin-8-yl)((4aS,9bS)-7-(trifluoromethyl)-2,3,4a,9b-tetrahydro-1H-spiro[benzofuro[3,2-b]pyridine-4,1′-cyclopropan]-1-yl)methanone], the CC50 (cell viability assay) is under 100 nM.

Regarding `CN(C(=O)c1cc2c(cc1F)nc(N)c1cncn12)[C@H]1c2ccc(-c3cnn(C(F)F)c3)cc2C[C@H]1OC(F)F` [Ff-583, 4-amino-N-((1S,2R)-2-(difluoromethoxy)-5-(1-(difluoromethyl)-1H-pyrazol-4-yl)-2,3-dihydro-1H-inden-1-yl)-7-fluoro-N-methylimidazo[1,5-a]quinoxaline-8-carboxamide], the CC50 (cell viability assay) fell in the range of 100 to 1000 nM. The same measure, in the same setting: in the case of `CN(C(=O)c1cc2c(cc1F)nc(N)c1cncn12)[C@@H]1COc2cc([C@@H]3C[C@H]3C#N)c(F)cc21` [Ff-438, Trans-4-amino-N-[(3S)-6-(2-cyanocyclopropyl)-5-fluoro-2,3-dihydrobenzofuran-3-yl]-7-fluoro-N-methyl-imidazo[1,5-a]quinoxaline-8-carboxamide] it was under 100 nM. Consider `Nc1nc2cc(F)c(C(=O)N3CC4CC4(c4ccc(C(F)(F)F)cc4)C3)cc2n2cncc12` (stereo not drawn) [Ff-3, (4-amino-7-fluoroimidazo[1,5-a]quinoxalin-8-yl)(1-(4-(trifluoromethyl)phenyl)-3-azabicyclo[3.1.0]hexan-3-yl)methanone], for which the CC50 (cell viability) was over 1000 nM.

Turning to `CN(C(=O)c1ccc2nc(N)c3cncn3c2c1)[C@@H]1COc2cc(C#CC3(C(F)F)CC3)ccc21` [Ff-521, (S)-4-amino-N-(6-((1-(difluoromethyl)cyclopropyl)ethynyl)-2,3-dihydrobenzofuran-3-yl)-N-methylimidazo[1,5-a]quinoxaline-8-carboxamide], the CC50 (cell viability assay) fell in the range of 100 to 1000 nM. Consider `Nc1nc2cc(F)c(C(=O)N(Cc3ccc(C(F)(F)F)cc3F)c3cnsc3)cc2n2cncc12` [Ff-227, 4-amino-7-fluoro-N-(2-fluoro-4-(trifluoromethyl)benzyl)-N-(isothiazol-4-yl)imidazo[1,5-a]quinoxaline-8-carboxamide], for which the CC50 (cell viability) was under 100 nM. For the compound `CN(Cc1ccc(C(F)(F)F)cc1F)C(=O)c1ccc2nc(N)c3cncn3c2c1` [Ff-411, 4-amino-N-[[2-fluoro-4-(trifluoromethyl)phenyl]methyl]-N-methyl-imidazo[1,5-a]quinoxaline-8-carboxamide], the CC50 (cell viability assay) was 100 to 1000 nM.

One may read the CC50 as the concentration that lowers cell viability or growth by half.
